Tests used:
[1] = biological target: T1, recombinant human FLAP protein (Homo sapiens, UniProt P20292); assay: FLAP binding assay (SPA, displacement of [125I]L-691,831); conditions: membranes of sf9 cells expressing recombinant human FLAP; [125I]L-691,831 probe; read-out: FLAP binding IC50
T1 construct: made in house; host or cells: Sf9 insect cells (100,000×g membrane pellet used)
T1 sequence (P20292 1-161): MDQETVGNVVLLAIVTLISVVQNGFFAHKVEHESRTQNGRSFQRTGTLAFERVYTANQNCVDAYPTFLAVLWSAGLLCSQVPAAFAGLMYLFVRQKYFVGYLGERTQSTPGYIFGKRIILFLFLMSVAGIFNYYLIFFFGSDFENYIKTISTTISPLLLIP
In short: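 Membranes from sf9 cells expressing human FLAP in pH 7.5 Tris buffer (MgCl2, EDTA, PMSF). Non-specific binding defined with 10 μM cold L-691,831.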

[2] = system: synthesis of LTB4 in human whole blood; assay: Human whole blood assay (inhibition of LTB4 synthesis, calcimycin stimulated); type: cell-based; conditions: heparinized human whole blood, calcimycin 20 μM, plasma LTB4
In short: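 Heparinized human whole blood preincubated with compound 15 min at 37 °C, then stimulated with calcimycin (20 μM final) for 30 min at 37 °C. Plasma LTB4 measured after low-speed centrifugation by antibody-based homogeneous time-resolved fluorescence.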

| IC50 [1] | IC50 [2] | Compound |
| --- | --- | --- |
| 64 nM | > 5000 nM | CN(C)C(=O)Cn1cc(-c2nc(C(C)(c3ccc(-c4ccc(F)nc4N)cc3)C3CC3)no2)cn1 (stereo not drawn) [Example 277, 2-[4-(3-{1-[4-(2-Amino-6-fluoro-pyridin-3-yl)-phenyl]-1-cyclopropyl-ethyl}-[1,2,4]oxadiazol-5-yl)-pyrazol-1-yl]-N,N-dimethyl-acetamide] |
| 5 nM | 150 nM | CN(C)C(=O)Cn1cc(-c2nc(C(C)(c3ccc(-c4ccc(N)nc4F)cc3)C3CC3)no2)cn1 (stereo not drawn) [Example 278, 2-[4-(3-{1-[4-(6-Amino-2-fluoro-pyridin-3-yl)-phenyl]-1-cyclopropyl-ethyl}-[1,2,4]oxadiazol-5-yl)-pyrazol-1-yl]-N,N-dimethyl-acetamide] |
| 76 nM | > 5000 nM | CC(C)Nc1ncc(-c2ccc([C@](C)(c3noc(-c4cnn(CC(=O)N(C)C)c4)n3)C3CC3)cc2)cn1 [Example 279, 2-[4-(3-{(R)-1-Cyclopropyl-1-[4-(2-isopropylamino-pyrimidin-5-yl)-phenyl]-ethyl}-[1,2,4]oxadiazol-5-yl)-pyrazol-1-yl]-N,N-dimethyl-acetamide] |
| 3 nM | 35 nM | CNc1ccc(-c2ccc([C@](C)(c3noc(-c4cnn(CC(=O)N(C)C)c4)n3)C3CC3)cc2)cn1 [Example 280, 2-[4-(3-{(R)-1-Cyclopropyl-1-[4-(6-methylamino-pyridin-3-yl)-phenyl]-ethyl}-[1,2,4]oxadiazol-5-yl)-pyrazol-1-yl]-N,N-dimethyl-acetamide] |
| 5 nM | 160 nM | CN(C)C(=O)Cn1cc(-c2nc([C@@](C)(c3ccc(-c4cnc(N)c(C(F)(F)F)c4)cc3)C3CC3)no2)cn1 [Example 281, 2-[4-(3-{(R)-1-[4-(6-Amino-5-trifluoromethyl-pyridin-3-yl)-phenyl]-1-cyclopropyl-ethyl}-[1,2,4]oxadiazol-5-yl)-pyrazol-1-yl]-N,N-dimethyl-acetamide] |
| 6.5 nM | 44 nM | C[C@@](c1ccc(-c2ccc(N)nc2)cc1)(c1noc(N2CCC(O)CC2)n1)C1CC1 [Example 282, 1-(3-{(R)-1-[4-(6-Amino-pyridin-3-yl)-phenyl]-1-cyclopropyl-ethyl}-[1,2,4]oxadiazol-5-yl)-piperidin-4-ol] |
| 16 nM | 920 nM | C[C@](c1ccc(-c2ccc(N)nc2)cc1)(c1noc(N2CCC(O)CC2)n1)C1CC1 [Example 283, 1-(3-{(S)-1-[4-(6-Amino-pyridin-3-yl)-phenyl]-1-cyclopropyl-ethyl}-[1,2,4]oxadiazol-5-yl)-piperidin-4-ol] |
| 4.7 nM | 200 nM | CN(C)C(=O)Cn1cc(-c2nc([C@@](C)(c3ccc(-c4cnc5c(c4)CCN5)cc3)C3CC3)no2)cn1 [Example 284, 2-[4-(3-{(R)-1-Cyclopropyl-1-[4-(2,3-dihydro-1H-pyrrolo[2,3-b]pyridin-5-yl)-phenyl]-ethyl}-[1,2,4]oxadiazol-5-yl)-pyrazol-1-yl]-N,N-dimethyl-acetamide] |
| 7 nM | 190 nM | Cc1nc(N)cnc1-c1ccc([C@](C)(c2noc(-c3cnn(CC(=O)N(C)C)c3)n2)C2CC2)cc1 [Example 285, 2-[4-(3-{(R)-1-[4-(5-Amino-3-methyl-pyrazin-2-yl)-phenyl]-1-cyclopropyl-ethyl}-[1,2,4]oxadiazol-5-yl)-pyrazol-1-yl]-N,N-dimethyl-acetamide] |
| 16 nM | 2100 nM | COc1cncc(-c2ccc(C(C)(c3noc(-c4cnn(C)c4)n3)C3CC3)cc2)c1 (stereo not drawn) [Example 286, 3-(4-{1-Cyclopropyl-1-[5-(1-methyl-1H-pyrazol-4-yl)-[1,2,4]oxadiazol-3-yl]-ethyl}-phenyl)-5-methoxy-pyridine] |

Continued, molecule first:

| Compound | IC50 [1] | IC50 [2] |
| --- | --- | --- |
| CC(c1ccc(-c2cnc(N)nc2)cc1)(c1noc(N2CCC(S(C)(=O)=O)CC2)n1)C1CC1 (stereo not drawn) [Example 259, 5-(4-{1-Cyclopropyl-1-[5-(4-methanesulfonyl-piperidin-1-yl)-[1,2,4]oxadiazol-3-yl]-ethyl}-phenyl)-pyrimidin-2-ylamine] | 16 nM | 270 nM |
| CC(C)C(C)(c1ccc(-c2cnc(N)nc2)cc1)c1noc(N(C)CCN(C)C)n1 (stereo not drawn) [Example 260, N-(3-{1-[4-(2-Amino-pyrimidin-5-yl)-phenyl]-1,2-dimethyl-propyl}-[1,2,4]oxadiazol-5-yl)-N,N′,N′-trimethyl-ethane-1,2-diamine] | 94 nM | 900 nM |
| CC(C)C(C)(c1ccc(-c2cnc(N)nc2)cc1)c1noc(N2CCN(C(C)(C)C)CC2)n1 (stereo not drawn) [Example 261, 5-(4-{1-[5-(4-tert-Butyl-piperazin-1-yl)-[1,2,4]oxadiazol-3-yl]-1,2-dimethyl-propyl}-phenyl)-pyrimidin-2-ylamine] | 11 nM | 190 nM |
| C[C@@](c1ccc(-c2ccc(N)nc2)cc1)(c1noc(-c2cnn(C3COC3)c2)n1)C1CC1 [Example 263, 5-(4-{(R)-1-Cyclopropyl-1-[5-(1-oxetan-3-yl-1H-pyrazol-4-yl)-[1,2,4]oxadiazol-3-yl]-ethyl}-phenyl)-pyridin-2-ylamine] | 3.5 nM | 21 nM |
| CC(C)N1CCN(c2nc(C(C)(c3ccc(-c4cnc(N)nc4)cc3)C(C)C)no2)CC1 (stereo not drawn) [Example 264, 5-(4-{1-[5-(4-Isopropyl-piperazin-1-yl)-[1,2,4]oxadiazol-3-yl]-1,2-dimethyl-propyl}-phenyl)-pyrimidin-2-ylamine] | 11 nM | 120 nM |
| C[C@@](c1ccc(-c2cnc(N)cn2)cc1)(c1noc(-c2cnn(C3COC3)c2)n1)C1CC1 [Example 265, 5-(4-{(R)-1-Cyclopropyl-1-[5-(1-oxetan-3-yl-1H-pyrazol-4-yl)-[1,2,4]oxadiazol-3-yl]-ethyl}-phenyl)-pyrazin-2-ylamine; compound with trifluoro-acetic acid] | 5.1 nM | 22 nM |
| CC(C)C(C)(c1ccc(-c2cnc(N)nc2)cc1)c1noc(N2CCN(C3CC3)CC2)n1 (stereo not drawn) [Example 266, 5-(4-{1-[5-(4-Cyclopropyl-piperazin-1-yl)-[1,2,4]oxadiazol-3-yl]-1,2-dimethyl-propyl}-phenyl)-pyrimidin-2-ylamine] | 16 nM | 170 nM |
| C[C@](c1ccc(-c2cnc(N)nc2)cc1)(c1noc(-c2cnc(N3CCNCC3)cn2)n1)C1CC1 [Example 267, 5-(4-{(S)-1-Cyclopropyl-[5-(3,4,5,6-tetrahydro-2H-[1,2′]bipyrazinyl-5′-yl)-[1,2,4]oxadiazol-3-yl]-ethyl}-phenyl)-pyrimidin-2-ylamine] | 12 nM | 390 nM |
| C[C@](c1ccc(-c2ccc(N)nc2)cc1)(c1noc(-c2cnc(N3CCNCC3)cn2)n1)C1CC1 [Example 268, 5-(4-{(S)-1-Cyclopropyl-1-[5-(3,4,5,6-tetrahydro-2H-[1,2′]bipyrazinyl-5′-yl)-[1,2,4]oxadiazol-3-yl]-ethyl}-phenyl)-pyridin-2-ylamine] | 9.3 nM | 600 nM |
| CC(C)C(C)(c1ccc(-c2cnc(N)nc2)cc1)c1noc(N2CCN(C(=O)N(C)C)CC2)n1 (stereo not drawn) [Example 269, 4-(3-{1-[4-(2-Amino-pyrimidin-5-yl)-phenyl]-1,2-dimethyl-propyl}-[1,2,4]oxadiazol-5-yl)-piperazine-1-carboxylic acid dimethylamide] | 24 nM | 230 nM |
| COC1CCN(c2nc(C(C)(c3ccc(-c4cnc(N)nc4)cc3)C(C)C)no2)CC1 (stereo not drawn) [Example 270, 5-(4-{1-[5-(4-Methoxy-piperidin-1-yl)-[1,2,4]oxadiazol-3-yl]-1,2-dimethyl-propyl}-phenyl)-pyrimidin-2-ylamine] | 9.8 nM | 96 nM |
| C[C@@](c1ccc(-c2cnc(N)nc2)cc1)(c1noc(-c2cnn(C3CC3)c2)n1)C1CC1 [Example 271, 5-(4-{(R)-1-Cyclopropyl-1-[5-(1-cyclopropyl-1H-pyrazol-4-yl)-[1,2,4]oxadiazol-3-yl]-ethyl}-phenyl)-pyrimidin-2-ylamine] | 4.9 nM | 51 nM |
| CC(C)C(C)(c1ccc(-c2cnc(N)nc2)cc1)c1noc(N2CCN(CC(=O)O)CC2)n1 (stereo not drawn) [Example 272, [4-(3-{1-[4-(2-Amino-pyrimidin-5-yl)-phenyl]-1,2-dimethyl-propyl}-[1,2,4]oxadiazol-5-yl)-piperazin-1-yl]-acetic acid] | 280 nM | > 5000 nM |
| Cn1cc(-c2nc(C(C)(c3ccc(-c4cnc5[nH]ccc5n4)cc3)C3CC3)no2)cn1 (stereo not drawn) [Example 273, 2-(4-{1-Cyclopropyl-1-[5-(1-methyl-1H-pyrazol-4-yl)-[1,2,4]oxadiazol-3-yl]-ethyl}-phenyl)-5H-pyrrolo[2,3-b]pyrazine] | 6.1 nM | 56 nM |
| CC(c1ccc(-c2cnc(N)nc2)cc1)(c1noc(N2CC(O)C2)n1)C1CC1 (stereo not drawn) [Example 274, 1-(3-{1-[4-(2-Amino-pyrimidin-5-yl)-phenyl]-1-cyclopropyl-ethyl}-[1,2,4]oxadiazol-5-yl)-azetidin-3-ol] | 40 nM | 200 nM |
| CN(C)C(=O)Cn1cc(-c2nc(C(C)(c3ccc(-c4cnc(N)nc4F)cc3)C3CC3)no2)cn1 (stereo not drawn) [Example 275, 2-[4-(3-{1-[4-(2-Amino-4-fluoro-pyrimidin-5-yl)-phenyl]-1-cyclopropyl-ethyl}-[1,2,4]oxadiazol-5-yl)-pyrazol-1-yl]-N,N-dimethyl-acetamide] | 11 nM | 220 nM |
| CC1(O)CN(c2nc(C(C)(c3ccc(-c4cnc(N)nc4)cc3)C3CC3)no2)C1 (stereo not drawn) [Example 276, 1-(3-{1-[4-(2-Amino-pyrimidin-5-yl)-phenyl]-1-cyclopropyl-ethyl}-[1,2,4]oxadiazol-5-yl)-3-methyl-azetidin-3-ol] | 28 nM | 260 nM |
